Measured values as given in ChEMBL document CHEMBL4342525, “Synthesis and Biochemical Evaluation of Noncyclic Nucleotide Exchange Proteins Directly Activated by cAMP 1 (EPAC1) Regulators” (J Med Chem, 2020).
The source made the active and inactive calls. No cut-off for these calls is given here.

Key:
[1] = target: T1, Rap guanine nucleotide exchange factor 3 (Homo sapiens) (UniProt O95398); experiment: Binding affinity to GST-tagged recombinant EPAC1 CNBD (169 to 318 residues) (unknown origin) expressed in Escherichia coli BL21 Star (DE3) assessed as relative fluorescence intensity incubated for 4 hrs by 8-NBD-cAMP competition binding assay relative to control; set-up: concentration or dose not given beside the values
T1 sequence (whole entry): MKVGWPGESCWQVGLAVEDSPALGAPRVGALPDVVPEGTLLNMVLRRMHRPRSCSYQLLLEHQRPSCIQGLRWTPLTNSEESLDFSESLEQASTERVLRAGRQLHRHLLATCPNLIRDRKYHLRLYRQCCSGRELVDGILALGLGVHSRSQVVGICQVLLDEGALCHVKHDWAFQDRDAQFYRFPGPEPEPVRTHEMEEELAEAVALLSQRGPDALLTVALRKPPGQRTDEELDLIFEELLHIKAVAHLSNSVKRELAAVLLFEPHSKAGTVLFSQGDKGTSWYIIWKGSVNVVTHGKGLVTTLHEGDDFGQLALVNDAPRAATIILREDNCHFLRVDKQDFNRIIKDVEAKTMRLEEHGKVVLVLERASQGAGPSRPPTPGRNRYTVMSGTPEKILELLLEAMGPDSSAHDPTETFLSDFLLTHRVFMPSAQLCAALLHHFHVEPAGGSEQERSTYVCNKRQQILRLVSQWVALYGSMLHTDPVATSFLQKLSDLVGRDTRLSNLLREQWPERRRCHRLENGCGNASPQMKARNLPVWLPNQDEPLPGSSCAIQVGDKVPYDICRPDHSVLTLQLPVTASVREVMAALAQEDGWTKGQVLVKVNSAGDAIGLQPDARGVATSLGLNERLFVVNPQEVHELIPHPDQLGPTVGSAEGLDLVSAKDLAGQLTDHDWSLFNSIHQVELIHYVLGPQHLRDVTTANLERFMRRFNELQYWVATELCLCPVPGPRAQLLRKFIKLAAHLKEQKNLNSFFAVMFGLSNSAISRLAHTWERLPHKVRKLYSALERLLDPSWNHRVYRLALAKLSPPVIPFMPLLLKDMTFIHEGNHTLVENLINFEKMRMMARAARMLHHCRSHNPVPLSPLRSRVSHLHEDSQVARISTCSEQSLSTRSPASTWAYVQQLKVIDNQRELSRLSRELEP

[2] = target: T1, Rap guanine nucleotide exchange factor 3 (Homo sapiens); experiment: Activation of recombinant EPAC1 (149 to 881 residues) (unknown origin) assessed as stimulation of dissociation of fluorescent MANT-GDP from recombinant Rap1b up to 100 uM in presence of excess nonfluorescent nucleotides by fluorescence based in-vitro GEF assay relative to cAMP
[3] = target: T2, Rap guanine nucleotide exchange factor 3 (Homo sapiens, UniProt O95398); experiment: Activation of recombinant EPAC1 (149 to 881 residues) (unknown origin) assessed as stimulation of dissociation of fluorescent MANT-GDP from recombinant Rap1b in presence of excess nonfluorescent nucleotides by fluorescence based in-vitro GEF assay
T2 sequence (O95398 whole entry): T1 sequence (whole entry)

[4] = target: T1, Rap guanine nucleotide exchange factor 3 (Homo sapiens); experiment: Activation of EPAC1 (unknown origin) expressed in U2OS cells at 100 uM pre-incubated for 10 mins before 8-pCPT-2'-O-Me-cAMP stimulation for 10 mins using GST-RalGDS-RBD by Western blot analysis based active GTP-bound Rap1 pull down assay; type: cell-based
[5] = Activation of PKA in human U2OS cells stably transfected with EPAC1 assessed as increase in VASP phosphorylation at 100 uM by Western blot analysis; type: cell-based
[6] = Binding affinity to GST-tagged recombinant EPAC1 delta-DEP mutant (149 to 881 residues) (unknown origin) expressed in Escherichia coli BL21 Star (DE3) incubated for 4 hrs by 8-NBD-cAMP competition binding assay; set-up: species or system Homo sapiens
[7] = target: T1, Rap guanine nucleotide exchange factor 3 (Homo sapiens); experiment: Activation of recombinant EPAC1 (149 to 881 residues) (unknown origin) assessed as stimulation of dissociation of fluorescent MANT-GDP from recombinant Rap1b at 10 uM in presence of excess nonfluorescent nucleotides by fluorescence based in-vitro GEF assay relative to cAMP
[8] = target: T1, Rap guanine nucleotide exchange factor 3 (Homo sapiens); experiment: Activation of EPAC1 in HUVEC assessed as reduction in IL-6-promoted signaling by measuring VCAM1 protein expression at 100 uM pre-incubated for 30 mins before IL6 and sIL6Ralpha stimulation for 5 hrs by Western blotting analysis; type: cell-based
[9] = target: T1, Rap guanine nucleotide exchange factor 3 (Homo sapiens); experiment: Activation of EPAC1 in HUVEC assessed as reduction in IL-6-promoted signaling by measuring SELE protein expression at 100 uM pre-incubated for 30 mins before IL6 and sIL6Ralpha stimulation for 5 hrs by Western blotting analysis; type: cell-based
[10] = target: T1, Rap guanine nucleotide exchange factor 3 (Homo sapiens); experiment: Activation of EPAC1 in HUVEC assessed as reduction in IL-6-promoted signaling by measuring pAKT protein levels at 100 uM pre-incubated for 30 mins before IL6 and sIL6Ralpha stimulation for 5 hrs by Western blotting analysis; type: cell-based
[11] = target: T1, Rap guanine nucleotide exchange factor 3 (Homo sapiens); experiment: Activation of recombinant EPAC1 (149 to 881 residues) (unknown origin) assessed as stimulation of dissociation of fluorescent MANT-GDP from recombinant Rap1b at 500 uM in presence of excess nonfluorescent nucleotides by fluorescence based in-vitro GEF assay relative to cAMP
[12] = target: T1, Rap guanine nucleotide exchange factor 3 (Homo sapiens); experiment: Activation of EPAC1 in HUVEC assessed as reduction in IL-6-promoted signaling by measuring pSTAT3 protein levels at 100 uM pre-incubated for 30 mins before IL6 and sIL6Ralpha stimulation for 5 hrs by Western blotting analysis; type: cell-based
[13] = target: T1, Rap guanine nucleotide exchange factor 3 (Homo sapiens); experiment: Activation of EPAC1 (unknown origin) expressed in U2OS cells at 100 uM incubated for 10 mins using GST-RalGDS-RBD by Western blot analysis based active GTP-bound Rap1 pull down assay; type: cell-based
[14] = target: T1, Rap guanine nucleotide exchange factor 3 (Homo sapiens); experiment: Activity at recombinant EPAC1 (149 to 881 residues) (unknown origin) assessed as reduction in cAMP-induced stimulation of dissociation of fluorescent MANT-GDP from recombinant Rap1b at 500 uM in presence of excess nonfluorescent nucleotides by fluorescence based in-vitro GEF assay
[15] = target: T1, Rap guanine nucleotide exchange factor 3 (Homo sapiens); experiment: Activation of EPAC1 in HUVEC assessed as reduction in IL-6-promoted signaling by measuring ICAM1 protein expression at 100 uM pre-incubated for 30 mins before IL6 and sIL6Ralpha stimulation for 5 hrs by Western blotting analysis; type: cell-based
[16] = target: T1, Rap guanine nucleotide exchange factor 3 (Homo sapiens); experiment: Activation of EPAC1 in HUVEC assessed as reduction in IL-6-promoted signaling by measuring pERK protein levels at 100 uM pre-incubated for 30 mins before IL6 and sIL6Ralpha stimulation for 5 hrs by Western blotting analysis; type: cell-based
[17] = target: T2, Rap guanine nucleotide exchange factor 3; experiment: Binding affinity to GST-tagged recombinant EPAC1 CNBD (169 to 318 residues) (unknown origin) expressed in Escherichia coli BL21 Star (DE3) incubated for 4 hrs by 8-NBD-cAMP competition binding assay
[18] = target: T1, Rap guanine nucleotide exchange factor 3 (Homo sapiens); experiment: Activity at EPAC1 in HUVEC assessed as promotion of IL-6-promoted signaling by measuring increased pAKT protein levels at 100 uM pre-incubated for 30 mins before IL6 and sIL6Ralpha stimulation for 5 hrs by Western blotting analysis; type: cell-based

| Compound | Activity [1] [%] | Activity [2] | EC50 [3] [µM] | Activity [4] | Activity [5] | IC50 [6] [µM] | Activity [7] | Activity [8] | Activity [9] | Activity [10] | Activity [11] [%] | Activity [12] | Activity [13] | Activity [14] | Activity [15] | Activity [16] | IC50 [17] [µM] | Activity [18] |
| --- | --- | --- | --- | --- | --- | --- | --- | --- | --- | --- | --- | --- | --- | --- | --- | --- | --- | --- |
| COc1ccc2ccc(OCC(=O)NS(=O)(=O)c3ccc4ccccc4c3)cc2c1 | 14 | Active | 5 | Active | Not Active | 0.5 | Active |  |  |  |  |  |  |  |  |  |  |  |
| COc1ccc2ccc(OCC(=O)NS(=O)(=O)c3ccc(N)cc3OC)cc2c1 | 7 |  | 5 | Active | Not Active | 0.6 | Active | inactive | inactive | inactive | 2 | inactive | Active | Active | inactive | inactive |  |  |
| Cc1ccc(S(=O)(=O)NC(=O)COc2ccc3ccccc3c2)c(C)c1 | 61 |  |  |  |  | 6.7 |  | Active |  |  |  | Active | Active |  |  | inactive | 9.2 to 12 | Active |
| Cc1cc(Nc2ncccc2C(F)(F)F)cc(S(=O)(=O)NC(=O)COc2ccc3ccccc3c2)c1 | 56 |  |  |  | Not Active |  | Active | Active | inactive |  |  | Active | Active |  | inactive | inactive | 4.6 | Active |
